Experimental data taken from patent US20260256136A1, “STABILIZATION OF ALDEHYDES AND/OR AN ALCOHOLS” (priority 2022, published 2026).

Experiments:
[1] = Accelerated storage test of aldehyde mixture with additive, 40 ppm Cu (Example 1); type: physicochemical
Procedure: To a mixture of aldehydes containing; (Z)-9-hexadecenal, (Z)-11-hexadecenal, hexadecanal, (Z)-11-hexadecen-1-ol, (Z)-11-hexadecenoic acid and 40 ppm Cu was added an additive as indicated in table 1 below. The mixture was thoroughly mixed and heated without cap in an oven at 55° C. for 14 days as an accelerated storage test.

[2] = Accelerated storage test of aldehyde mixture with additive, 10 ppm Cu (Example 2)
Procedure: The term “accelerated storage test” as used herein refers to a well known protocol for investigating the stability of a particular composition. The protocol is described in for example the memorandum dated 16 Nov. 2012 from The United States Environmental Protection Agency Washington, D.C. 20460 with the subject title “Accelerated Storage Stability and Corrosion Characteristics Study Protocol”. The protocol evaluates product stability at 54° C.±2° C. for 14 days.

[3] = Storage test of aldehyde mixture containing 4-hydroxy-TEMPO with additive (Example 4); type: physicochemical; conditions: for suppressing acid formation and/or degradation of the aldehydes: 55° C. 14 days; for Heptane / Z11-16:OH / 16:Acid / OH tempo / Z9-16:Ald / 15-1:Ald / 16:Ald / Z11-16:Ald: after 55° C. 14 days without cap; for Heptane: before test 0.04, without additive 0.04; for Z11-16:OH: before test 0.27, without additive 0.06; for 16:Acid: before test 1.05, without additive 6.14; for OH tempo: before test 1.19, without additive 1.11; for Z9-16:Ald: before test 5.09, without additive 3.71; for 15-1:Ald: before test 7.27, without additive 5.83; for 16:Ald: before test 8.41, without additive 6.64; for Z11-16:Ald: before test 75.31, without additive 57.21, in % (unit assumed)
Procedure: To a mixture of aldehydes containing; 4-hydroxy-TEMPO (4-hydroxy-2,2,6,6-tetramethylpiperidin-1-oxyl), (Z)-10-pentenenal, (Z)-9-hexadecenal, (Z)-11-hexadecenal, hexadecanal, (Z)-11-hexadecen-1-ol and (Z)-11-hexadecenoic acid in the composition listed in table 4 below was added up to 1% of an additive in table below. The mixture was thoroughly mixed and heated without cap in an oven at 55° C. for 14 days.

[4] = Storage test of aldehyde mixture containing 4-hydroxy-TEMPO and 10 ppm Copper with additive (Example 3); conditions: 10 ppm Copper; for suppressing acid formation and degradation of the aldehydes: 55 C 14 days; for Z11-16:OH / Z10-15:Ald / 16:Acid / Z9-16:Ald / 16:Ald / Z11-16:Ald: after 55 C 14 days without cap; for Z11-16:OH: before test 2.16, blank 1.44; for Z10-15:Ald: before test 2.61, blank 2.72; for 16:Acid: before test 3.01, blank 7.94; for Z9-16:Ald: before test 5.33, blank 3.91; for 16:Ald: before test 8.16, blank 6.48; for Z11-16:Ald: before test 74.98, blank 58.18
Procedure: To a mixture of aldehydes containing; 4-hydroxy-TEMPO (4-hydroxy-2,2,6,6-tetramethylpiperidin-1-oxyl), (Z)-10-pentenenal, (Z)-9-hexadecenal, (Z)-11-hexadecenal, hexadecanal, (Z)-11-hexadecen-1-ol (Z)-11-hexadecenoic acid and 10 ppm Copper in the composition listed in table 3 below was added up to 1% of an additive in table below. The mixture was thoroughly mixed and heated without cap in an oven at 55 C for 14 days.

Molecule | suppressing acid formation and/or degradation of the aldehydes [3] | Heptane [3] | Z11-16:OH [3] | 16:Acid [3] | OH tempo [3] | Z9-16:Ald [3] | 15-1:Ald [3] | 16:Ald [3] | Z11-16:Ald [3] | suppressing acid formation and degradation of the aldehydes [4] | Z11-16:OH [4] | Z10-15:Ald [4] | 16:Acid [4] | Z9-16:Ald [4] | 16:Ald [4] | Z11-16:Ald [4] | also measured
[Na+].[O-][n+]1ccccc1[S-] [Sodium pyrithione] | particularly efficient at suppressing acid formation and/or degradation of the aldehydes | 0.04 | 0.24 | 1.58 | 1.05 | 5.08 | 6.71 | 8.29 | 74.65 | particularly efficient at suppressing acid formation and degradation of the aldehydes | 2.14 | 2.87 | 3.39 | 5.18 | 8.07 | 74.71 | suppressing degradation ([1]; 55° C. 14 days): particularly efficient at suppressing degradation; Z9-16:Ald ([1]; after 55° C. 14 days without cap, before test 4.3, blank 3.066023): 3.083; C16:Acid ([1]; after 55° C. 14 days without cap, before test 6.7, blank 18.84135): 8.924; 16:Ald ([1]; after 55° C. 14 days without cap, before test 7.5, blank 6.659339): 6.675; Z11-16Ald ([1]; after 55° C. 14 days without cap, before test 69.4, blank 54.83784, in % (unit assumed)): 57.02; suppressing degradation ([2]; 55° C. 14 days): highly efficient at suppressing degradation; C16:Acid ([2]; after 55° C. 14 days without cap, before test 1.05, blank 17.72): 3.34; Z9-16:Ald ([2]; after 55° C. 14 days without cap, before test 5.09, blank 3.05): 4.20; 16:Ald ([2]; after 55° C. 14 days without cap, before test 8.41, blank 6.60): 8.73; Z11-16Ald ([2]; after 55° C. 14 days without cap, before test 75.31, blank 54.31): 76.47
Zinc Pyrithione | particularly efficient at suppressing acid formation and/or degradation of the aldehydes | 0.04 | 0.13 | 2.29 | 1.17 | 4.57 | 6.78 | 7.72 | 65.87 | particularly efficient at suppressing acid formation and degradation of the aldehydes | 1.53 | 3.04 | 5.28 | 4.44 | 7.01 | 64.80 | –
